Tests used:
[1] = biological target: T1, full-length recombinant rat vitamin D receptor (Rattus norvegicus, UniProt P13053); experiment: Vitamin D receptor binding, competition with [3H]-1,25-(OH)2-D3; settings: competition with [3H]-1,25-(OH)2-D3, FIG. 1
T1 construct: Full-length recombinant rat receptor was expressed in E. coli; histidine tag (C); made in house; host or cells: E. coli BL21 (DE3) Codon Plus RIL
T1 sequence (P13053 1-423): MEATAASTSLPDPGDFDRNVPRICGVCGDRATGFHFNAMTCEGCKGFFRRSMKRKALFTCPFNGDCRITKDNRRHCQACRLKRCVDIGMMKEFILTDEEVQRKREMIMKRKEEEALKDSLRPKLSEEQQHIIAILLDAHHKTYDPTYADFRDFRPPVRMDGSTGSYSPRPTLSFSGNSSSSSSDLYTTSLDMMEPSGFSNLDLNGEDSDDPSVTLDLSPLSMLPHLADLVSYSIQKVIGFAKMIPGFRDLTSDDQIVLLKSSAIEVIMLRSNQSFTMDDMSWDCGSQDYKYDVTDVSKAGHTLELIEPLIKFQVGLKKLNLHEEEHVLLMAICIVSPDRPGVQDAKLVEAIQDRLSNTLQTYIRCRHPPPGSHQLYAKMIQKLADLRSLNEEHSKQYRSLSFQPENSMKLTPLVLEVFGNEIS
From the text: FIG. 1 is a graph comparing the relative activity of Des-C,D and 1,25(OH)2D3 to compete for binding with [^3H]-1 ,25-(OH)2-D3 to the full-length recombinant rat vitamin D receptor.
Full-length recombinant rat receptor was expressed in E. coli BL21 (DE3) Codon Plus RIL cells and purified to homogeneity using two different column chromatography systems. The first system was a nickel affinity resin that utilizes the C-terminal histidine tag on this protein. The protein that eluted from this resin was further purified using ion exchange chromatography (S-Sepharose Fast Flow). Aliquots of the purified protein were quick frozen in liquid nitrogen and stored at −80° C. until use. For use in binding assays, the protein was diluted in TEDK50 (50 mM Tris, 1.5 mM EDTA, pH 7.4, 5 mM DTT, 150 mM KCI) with 0.1% Chaps detergent. […]
Unlabeled ligands were dissolved in ethanol and the concentrations were determined using UV spectrophotometry (1,25(OH)2D3: molar extinction coefficient=18,200 and λmax=265 nm). […]
Radiolabeled and unlabeled ligands were added to 100 mcl of the diluted protein at a final ethanol concentration of ≦10%, mixed and incubated overnight on ice to reach binding equilibrium. […] Total binding was determined from the tubes containing only radiolabeled ligand.

[2] = test system: Human promyelocytic leukemia (HL60) cells; experiment: HL-60 differentiation (nitro blue tetrazolium reduction); format: cell-based; settings: FIG. 2
Description: FIG. 2 is a graph comparing the percent HL-60 cell differentiation as a function of the concentration of Des-C,D with that of 1,25(OH)2D3.
The study drugs were dissolved in ethanol and the concentrations determined using UV spectrophotometry. Serial dilutions were prepared so that a range of drug concentrations was tested without changing the final concentration of ethanol (≦0.2%) present in the cell cultures.
Human promyelocytic leukemia (HL60) cells were grown in RPMI-1640 medium containing 10% fetal bovine serum. The cells were incubated at 37° C. in the presence of 5% CO2.
HL60 cells were plated at 1.2 x 10^5cells/mL. Eighteen hours after plating, cells in duplicate were treated with drug. Four days later, the cells were harvested and a nitro blue tetrazolium reduction assay was performed (Collins et al., 1979; J. Exp. Med. 149:969-974). The percentage of differentiated cells was determined by counting a total of 200 cells and recording the number that contain intracellular black-blue formazan deposits. Verification of differentiation to monocytic cells was determined by measuring phagocytic activity.

[3] = test system: 24-hydroxylase (24Ohase) gene promoter in ROS 17/2.8 (bone) cells; experiment: In vitro transcription assay (24-hydroxylase gene promoter, luciferase reporter); format: cell-based; settings: ROS 17/2.8 cells, FIG. 3
Description: FIG. 3 is a graph comparing the in vitro transcription activity of Des-C, D with that of 1,25(OH)2D3.
Transcription activity was measured in ROS 17/2.8 (bone) cells that were stably transfected with a 24-hydroxylase (240hase) gene promoter upstream of a luciferase reporter gene (Arbour et al., 1998). Cells were given a range of doses. Sixteen hours after dosing the cells were harvested and luciferase activities were measured using a luminometer. RLU=relative luciferase units.

Sprague-Dawley rats = experiment: Bone calcium mobilization (serum calcium); format: in vivo, rat; settings: even at the very high dose; four consecutive ip doses; FIG. 4
From the text: FIG. 4 is a bar graph comparing the bone calcium mobilization activity of Des-C,D with that of 1,25(OH)2D3.
Male, weanling Sprague-Dawley rats were placed on Diet 11 (Suda et al. J. Nutr. 100:1049, 1970) (0.47% Ca) diet +vitamins AEK for one week followed by Diet 11 (0.02% Ca) +AEK for 3 weeks. The rats were then switched to a diet containing 0.47% Ca for one week followed by two weeks on a diet containing 0.02% Ca. Dose administration began during the last week on 0.02% calcium diet. Four consecutive ip doses were given approximately 24 hours apart. Twenty-four hours after the last dose, blood was collected from the severed neck and the concentration of serum calcium was determined as a measure of bone calcium mobilization. The first 10 cm of the intestine was also collected for intestinal calcium transport analysis using the everted gut sac method. Antagonism was tested by administering a combination of 1,25(OH)2D3 and the compound to the animal simultaneously.

C=C1[C@H](O)CC(=C/C=C/CCC[C@@H](C)CCCC(C)(C)O)C[C@H]1O [Des-C,D]
binding to the vitamin D receptor compared with 1,25-(OH)2D3 [1]: does not bind to the vitamin D receptor as strongly as the native hormone 1,25-(OH)2D3 | activity in inducing differentiation of HL-60 cells compared with 1,25-(OH)2D3 [2]: does not show as much activity as 1,25-(OH)2D3 | activity in causing transcription compared with 1,25-(OH)2D3 [3]: does not show as much activity in causing transcription as 1,25-(OH)2D3 | bone calcium mobilizing activity (Sprague-Dawley rats): no measureable bone calcium mobilizing activity

From patent US20070112077A1, “Des-C,D analogs of 1alpha,25-dihydroxy-19-norvitamin D3” (Wisconsin Alumni Research Foundation, priority 2005, published 2007)
